Data reported in PubChem BioAssay AID328 (DTP/NCI, 2004).
Where “and” joins values, the source holds several entries; their conditions need not be identical. Equal values may be shown once. Inconclusive results and toxic doses are left out.

Tested on: BDF1 mice, P388 leukemia ip, median survival T/C
Experiment: NCI In Vivo Anticancer Drug Screen. Data for tumor model P388 Leukemia (intraperitoneal) in B6D2F1 (BDF1) mice
Details: endpoint: median survival time, higher = longer survival
Outline: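 In tumour-bearing mice, survival after compound treatment is set against the vehicle group and given as a quotient.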

[1] = dose: 25.0 mg/kg/injection, schedule: Q01DX009 (ip), vehicle: saline
[2] = dose: 25.0 mg/kg/injection, schedule: Q04DX003 (ip), vehicle: saline
[3] = dose: 50.0 mg/kg/injection, schedule: Q01DX009 (ip), vehicle: saline
[4] = dose: 50.0 mg/kg/injection, schedule: Q04DX003 (ip), vehicle: saline
[5] = dose: 66.0 mg/kg/injection, schedule: Q01DX009 (ip), vehicle: saline with Tween-80
[6] = dose: 50.0 mg/kg/injection, schedule: Q01DX009 (ip), vehicle: saline with Tween-80
[7] = dose: 100.0 mg/kg/injection, schedule: Q01DX009 (ip), vehicle: saline with Tween-80
[8] = dose: 50.0 mg/kg/injection, schedule: Q01DX009 (ip), vehicle: Klucel (hydroxypropylcellulose) (HPC)
[9] = dose: 100.0 mg/kg/injection, schedule: Q01DX009 (ip), vehicle: Klucel (hydroxypropylcellulose) (HPC)
[10] = dose: 50.0 mg/kg/injection, schedule: Q04DX003 (ip), vehicle: saline with Tween-80
[11] = dose: 100.0 mg/kg/injection, schedule: Q04DX003 (ip), vehicle: saline with Tween-80
[12] = dose: 200.0 mg/kg/injection, schedule: Q01DX009 (ip), vehicle: saline with Tween-80
[13] = dose: 200.0 mg/kg/injection, schedule: Q04DX003 (ip), vehicle: saline with Tween-80

With `CCCCN(CCCC)CCCC#N` as the compound, how does the T/C [1] read?
The T/C was 116 % of control.

What about the T/C [2] of the same compound?
Its T/C is 100 % of control.

What about the T/C [3] of the same compound?
Its T/C is 116 % of control.

What about the T/C [4] of the same compound?
The T/C was 96 % of control.

What about the T/C [5] of the same compound?
Its T/C is 120 % of control.

And the T/C (dose: 100.0 mg/kg/injection, schedule: Q04DX003 (ip), vehicle: saline)?
The T/C was 103 % of control.

`CCOC(=O)CCN(CC1CC=CCC1)c1cc(O)c2c(c1O)C(=O)c1ccccc1C2=O` (stereo not drawn) was tested. Which T/C (dose: 50.0 mg/kg/injection, schedule: Q01DX005 (ip), vehicle: saline with Tween-80) did it give?
Its T/C is 94 % of control.

What about the T/C (dose: 100.0 mg/kg/injection, schedule: Q01DX005 (ip), vehicle: saline with Tween-80) of the same compound?
Its T/C is 89 % of control.

What about the T/C (dose: 200.0 mg/kg/injection, schedule: Q01DX005 (ip), vehicle: saline with Tween-80) of the same compound?
Its T/C is 90 % of control.

Which results are given for `CCOc1cccc(/C=N/n2c(-c3ccccc3Cl)nc3ccccc3c2=O)c1O`?
T/C [6]: 90 % of control; T/C [7]: 87 % of control

For `COc1ccc(N=C(c2ccccc2)c2ccc([N+](=O)[O-])cc2)cc1`, which T/C (dose: 12.0 mg/kg/injection, schedule: Q01DX009 (ip), vehicle: Klucel (hydroxypropylcellulose) (HPC)) is on record?
The T/C was 100 % of control.

What about the T/C (dose: 25.0 mg/kg/injection, schedule: Q01DX009 (ip), vehicle: Klucel (hydroxypropylcellulose) (HPC)) of the same compound?
Its T/C is 109 % of control.

What about the T/C [8] of the same compound?
The T/C was 100 % of control and 122 % of control.

What about the T/C [9] of the same compound?
Its T/C is 86 % of control.

And the T/C (dose: 200.0 mg/kg/injection, schedule: Q01DX009 (ip), vehicle: Klucel (hydroxypropylcellulose) (HPC))?
Its T/C is 90 % of control.

With `COc1cc2c3c(c1)C(O)CC[N+]3(C)CCC2` (stereo not drawn) as the compound, how does the T/C (dose: 12.5 mg/kg/injection, schedule: Q01DX009 (ip), vehicle: saline) read?
Its T/C is 100 % of control.

And the T/C (dose: 12.5 mg/kg/injection, schedule: Q04DX003 (ip), vehicle: saline)?
Its T/C is 109 % of control.

What about the T/C [1] of the same compound?
The T/C was 110 % of control.

What about the T/C [2] of the same compound?
Its T/C is 109 % of control.

And the T/C [3]?
The T/C was 100 % of control.

What about the T/C [4] of the same compound?
The T/C was 109 % of control.

Which results are given for `C#CCCCOC(=O)Nc1ccccc1`?
T/C [8]: 90 % of control; T/C [9]: 90 % of control

Which T/C [6] does the source give for `O=c1[nH]ccc2c(O)cccc12` here?
Its T/C is 96 % of control.

What about the T/C [10] of the same compound?
Its T/C is 100 % of control.

What about the T/C [7] of the same compound?
The T/C was 92 % of control.

And the T/C [11]?
Its T/C is 95 % of control.

What about the T/C [12] of the same compound?
The T/C was 96 % of control.

What about the T/C [13] of the same compound?
Its T/C is 91 % of control.

What does the source list for `CC1(C)OCC2OC3(C(=O)O)OC(C)(C)OC3C2O1` (stereo not drawn)?
T/C (dose: 25.0 mg/kg/injection, schedule: Q01DX009 (ip), vehicle: water): 100 % of control; T/C (dose: 50.0 mg/kg/injection, schedule: Q01DX009 (ip), vehicle: water): 96 % of control; T/C (dose: 100.0 mg/kg/injection, schedule: Q01DX009 (ip), vehicle: water): 101 % of control; T/C (dose: 200.0 mg/kg/injection, schedule: Q01DX009 (ip), vehicle: water): 99 % of control; T/C (dose: 400.0 mg/kg/injection, schedule: Q01DX009 (ip), vehicle: water): 101 % of control

For `CC1CC(C)(O)CC(C(O)CC2CC(=O)NC(=O)C2)C1=O` (stereo not drawn), which T/C (dose: 0.4 mg/kg/injection, schedule: Q01DX010 (ip), vehicle: saline) is on record?
The T/C was 181 % of control.

What about the T/C (dose: 0.5 mg/kg/injection, schedule: Q04DX003 (ip), vehicle: saline) of the same compound?
Its T/C is 111 % of control.

And the T/C (dose: 0.8 mg/kg/injection, schedule: Q01DX010 (ip), vehicle: saline)?
Its T/C is 90 % of control.

What about the T/C (dose: 1.2 mg/kg/injection, schedule: Q04DX003 (ip), vehicle: saline) of the same compound?
Its T/C is 123 % of control.

What about the T/C (dose: 1.3 mg/kg/injection, schedule: Q01DX001 (sc), vehicle: saline) of the same compound?
The T/C was 118 % of control.

What about the T/C (dose: 2.0 mg/kg/injection, schedule: Q04DX003 (ip), vehicle: saline) of the same compound?
Its T/C is 161 % of control.

And the T/C (dose: 2.16 mg/kg/injection, schedule: Q01DX001 (ip), vehicle: saline)?
Its T/C is 116 % of control.

What about the T/C (dose: 2.16 mg/kg/injection, schedule: Q01DX001 (sc), vehicle: saline) of the same compound?
The T/C was 119 % of control.

And the T/C (dose: 3.33 mg/kg/injection, schedule: Q04DX003 (ip), vehicle: saline)?
Its T/C is 92 % of control.

And the T/C (dose: 3.6 mg/kg/injection, schedule: Q01DX001 (ip), vehicle: saline)?
Its T/C is 114 % of control.

And the T/C (dose: 3.6 mg/kg/injection, schedule: Q01DX001 (sc), vehicle: saline)?
The T/C was 118 % of control.

What about the T/C (dose: 3.6 mg/kg/injection, schedule: Q04DX003 (ip), vehicle: saline) of the same compound?
Its T/C is 107 % of control.

What about the T/C (dose: 6.0 mg/kg/injection, schedule: Q01DX001 (ip), vehicle: saline) of the same compound?
The T/C was 116 % of control.

And the T/C (dose: 6.0 mg/kg/injection, schedule: Q01DX001 (sc), vehicle: saline)?
Its T/C is 113 % of control.

What about the T/C (dose: 10.0 mg/kg/injection, schedule: Q01DX001 (sc), vehicle: saline) of the same compound?
Its T/C is 113 % of control.

What about the T/C (dose: 288.0 micrograms/kg/injection, schedule: Q01DX009 (ip), vehicle: saline) of the same compound?
Its T/C is 155 % of control and 170 % of control.

What about the T/C (dose: 467.0 micrograms/kg/injection, schedule: Q04DX003 (sc), vehicle: saline) of the same compound?
The T/C was 116 % of control.

And the T/C (dose: 480.0 micrograms/kg/injection, schedule: Q01DX009 (ip), vehicle: saline)?
The T/C was 177 % of control.

What about the T/C (dose: 778.0 micrograms/kg/injection, schedule: Q04DX003 (ip), vehicle: saline) of the same compound?
The T/C was 119 % of control.

And the T/C (dose: 778.0 micrograms/kg/injection, schedule: Q04DX003 (sc), vehicle: saline)?
The T/C was 123 % of control.

And the T/C (dose: 800.0 micrograms/kg/injection, schedule: Q01DX009 (ip), vehicle: saline)?
The T/C was 109 % of control.

And the T/C (dose: 3600.0 micrograms/kg/injection, schedule: Q04DX003 (ip), vehicle: saline)?
Its T/C is 92 % of control.

What does the source list for `CC(=O)Oc1ccc(/C=N/NC(N)=S)nc1`?
T/C (dose: 0.18 mg/kg/injection, schedule: Q01DX009 (ip), vehicle: saline with Tween-80): 123 % of control; T/C (dose: 0.27 mg/kg/injection, schedule: Q01DX009 (ip), vehicle: saline with Tween-80): 116 % of control; T/C (dose: 0.4 mg/kg/injection, schedule: Q01DX009 (ip), vehicle: saline with Tween-80): 176 % of control; T/C (dose: 0.6 mg/kg/injection, schedule: Q01DX009 (ip), vehicle: saline with Tween-80): 123 % of control; T/C (dose: 44.0 mg/kg/injection, schedule: Q01DX009 (ip), vehicle: saline with Tween-80): 177 % of control; T/C [5]: 200 % of control; T/C [7]: 177 % of control and 220 % of control; T/C [11]: 107 % of control; T/C (dose: 150.0 mg/kg/injection, schedule: Q01DX009 (ip), vehicle: saline with Tween-80): 90 % of control; T/C [12]: 105 % of control; T/C [13]: 111 % of control; T/C (dose: 400.0 mg/kg/injection, schedule: Q04DX003 (ip), vehicle: saline with Tween-80): 115 % of control

`N#CC1(Nc2ccccc2)CCCCC1` was tested. Which T/C (dose: 25.0 mg/kg/injection, schedule: Q01DX009 (ip), vehicle: saline with Tween-80) did it give?
The T/C was 115 % of control.

And the T/C [10]?
The T/C was 109 % of control.

And the T/C [11]?
The T/C was 109 % of control.

How did the T/C (dose: 0.25 mg/kg/injection, schedule: Q01DX010 (ip), vehicle: saline) turn out when `CC[C@H]1CN2CCc3cc(OC)c(OC)cc3[C@@H]2C[C@@H]1C[C@H]1NCCc2cc(O)c(OC)cc21` was run?
Its T/C is 159 % of control.

And the T/C (dose: 0.5 mg/kg/injection, schedule: Q01DX010 (ip), vehicle: saline)?
The T/C was 150 % of control.

What about the T/C (dose: 2.0 mg/kg/injection, schedule: Q01DX010 (ip), vehicle: saline) of the same compound?
Its T/C is 150 % of control and 190 % of control.

What about the T/C (dose: 8.0 mg/kg/injection, schedule: Q01DX010 (ip), vehicle: saline) of the same compound?
The T/C was 95 % of control.

Which results are given for `CN(N=O)C(=O)NCCSSCCNC(=O)N(C)N=O`?
T/C (dose: 53.0 mg/kg/injection, schedule: Q04DX003 (ip), vehicle: saline with Tween-80): 120 % of control; T/C (dose: 80.0 mg/kg/injection, schedule: Q04DX003 (ip), vehicle: saline with Tween-80): 170 % of control; T/C (dose: 120.0 mg/kg/injection, schedule: Q04DX003 (ip), vehicle: saline with Tween-80): 100 % of control

How did the T/C [3] turn out when `CC1(c2ccccc2)O[C@@H]2C[C@H]3[C@@H]4CCC5=CC(=O)C=C[C@]5(C)[C@@]4(F)[C@@H](O)C[C@]3(C)[C@]2(C(=O)CO)O1` (stereo partly drawn) was run?
Its T/C is 100 % of control.

What about the T/C (dose: 100.0 mg/kg/injection, schedule: Q01DX009 (ip), vehicle: saline) of the same compound?
The T/C was 100 % of control.

And the T/C (dose: 132.0 mg/kg/injection, schedule: Q04DX003 (ip), vehicle: saline)?
Its T/C is 90 % of control and 95 % of control (2×).

And the T/C (dose: 200.0 mg/kg/injection, schedule: Q04DX003 (ip), vehicle: saline)?
The T/C was 86 % of control and 95 % of control and 100 % of control.

What about the T/C (dose: 300.0 mg/kg/injection, schedule: Q04DX003 (ip), vehicle: saline) of the same compound?
The T/C was 105 % of control.

And the T/C (dose: 400.0 mg/kg/injection, schedule: Q04DX003 (ip), vehicle: alcohol)?
Its T/C is 105 % of control.

With `Oc1c(Cl)cc(Cl)cc1C=Nc1cc(C(F)(F)F)ccc1Cl` as the compound, how does the T/C [6] read?
The T/C was 87 % of control.

And the T/C [7]?
Its T/C is 89 % of control.

What about the T/C [12] of the same compound?
The T/C was 99 % of control.
